These are literature values, as cited in patent publication US11648313B2, “Multimodal therapy for cancer cell destruction” (Southeast Missouri State University, priority 2015, dated 2023).

One series deals with FAK (Homo sapiens, UniProt Q05397).
The next series has as its system NF-kB. Particulars: neuroblastoma cells.

Sequence of FAK (Q05397 whole entry): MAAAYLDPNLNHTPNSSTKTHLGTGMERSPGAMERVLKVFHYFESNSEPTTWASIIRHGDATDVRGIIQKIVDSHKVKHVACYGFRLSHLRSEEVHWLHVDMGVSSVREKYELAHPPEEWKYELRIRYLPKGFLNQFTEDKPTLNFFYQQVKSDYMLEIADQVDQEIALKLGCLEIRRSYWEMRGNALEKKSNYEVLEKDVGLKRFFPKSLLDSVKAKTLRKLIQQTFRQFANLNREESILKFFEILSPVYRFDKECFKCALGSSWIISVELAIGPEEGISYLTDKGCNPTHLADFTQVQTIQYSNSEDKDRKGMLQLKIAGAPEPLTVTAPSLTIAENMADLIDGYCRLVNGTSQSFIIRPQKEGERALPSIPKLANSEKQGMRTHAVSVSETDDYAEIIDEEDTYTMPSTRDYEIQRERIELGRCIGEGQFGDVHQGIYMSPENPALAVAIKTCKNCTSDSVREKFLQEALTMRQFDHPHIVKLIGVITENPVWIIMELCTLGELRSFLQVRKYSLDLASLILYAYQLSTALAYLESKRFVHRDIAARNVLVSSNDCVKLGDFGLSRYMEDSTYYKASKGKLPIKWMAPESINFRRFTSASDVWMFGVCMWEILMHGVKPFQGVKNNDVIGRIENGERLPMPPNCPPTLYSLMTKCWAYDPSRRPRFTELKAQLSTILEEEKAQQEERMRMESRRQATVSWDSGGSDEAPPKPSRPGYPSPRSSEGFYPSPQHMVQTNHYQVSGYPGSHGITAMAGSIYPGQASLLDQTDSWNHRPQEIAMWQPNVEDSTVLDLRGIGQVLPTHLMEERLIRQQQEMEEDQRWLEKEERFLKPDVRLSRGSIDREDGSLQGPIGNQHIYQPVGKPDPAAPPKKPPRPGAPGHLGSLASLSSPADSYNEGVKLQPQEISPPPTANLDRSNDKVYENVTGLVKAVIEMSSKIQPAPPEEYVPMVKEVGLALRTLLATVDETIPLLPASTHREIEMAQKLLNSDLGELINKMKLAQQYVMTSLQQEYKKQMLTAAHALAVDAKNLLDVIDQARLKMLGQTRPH

`CNC(=O)c1ccccc1Nc1nc(Nc2ccc(N3CCOCC3)cc2OC)ncc1Cl` [NVP-TAE 226]: the water solubility entry is given as “adequate water solubility”. In addition, the “effect of FAK inhibition on cell survival, apoptosis, cell cycle” value at FAK was “decreased cell survival, increased apoptosis, and G2 cell cycle arrest”. In the case of `COc1cc([C@@H]2c3cc4c(cc3[C@@H](O[C@@H]3O[C@@H]5CO[C@@H](C)O[C@H]5[C@H](O)[C@H]3O)[C@H]3COC(=O)[C@H]23)OCO4)cc(OC)c1O` [VP16], in the series on NF-kB, the NF-kB activation result is “trigger NF-kB activation”. On to `Cl.Cl.Cl.Cl.Nc1cc(N)c(N)cc1N` [Y15], for which the water solubility result is reported as “adequate water solubility”. Besides, the “effect of FAK inhibition on cell survival, apoptosis, cell cycle” value at FAK was “decreased cell survival, increased apoptosis, and G2 cell cycle arrest”. For the molecule `COc1cccc2c1C(=O)c1c(O)c3c(c(O)c1C2=O)C[C@@](O)(C(=O)CO)C[C@@H]3O[C@H]1C[C@H](N)[C@H](O)[C@H](C)O1` [doxorubicin], the NF-kB activation result in the series with NF-kB was “trigger NF-kB activation”.
